According to patent US20040261139A1, “Androgen receptor knock-out transgenic animals” (priority 2001, published 2004):
Read-outs that look alike come from different tables or passages of the source.

Assays:
p21 (WAF1/CIP1) gene [1] = conditions: 10 nM DHT, MCF-7 cells transfected with AR
Method: (§3) A. MCF-7 cells were transfected using Superfect (Qiagen) with 2 μg of pSG5-AR with or without 4 μg of BRCA1, as indicated. Cells were cultured in the presence of 10 nM DHT or vehicle, as indicated. B. PC-3(AR2) cells were transfected under the same conditions as the MCF-7 cells in A. except that AR was not transfected. […] PC-3(AR2) cells transfected with BRCA1 were cultured in the presence of vehicle, 10 nM DHT, or 1 μM hydroxyflutamide (HF).
(§4) The ability of AR and BRCA1 to regulate the endogenous p21 (WAF1/CIP1) gene in MCF-7 breast cancer cells was examined.

ZR-ARKO derived tumors = conditions: ovarectomized nude mice, estradiol and DHT pellets; expected result
Method: (§1) After the initial in vitro characterization of the ARKO cells, mouse xenograft experiments are performed. The ARKO cells are subcutaneously injected into ovarectomized nude mice and the parental cell lines serve as xenograft controls. This experiment allows for the comparison of AR positive and AR negative breast carcinoma cells in animals that carry a functional AR gene without the potential confounding effects of using differently derived tumor cell lines. Tumor growth rate is compared in ARKO and parental cell line recipients in response to estradiol treatment, DHT treatment, or combined administration of estradiol and DHT. […] In addition to growth rate, tumors are examined histologically to determine the morphology and degree of vascularization between ARKO cell tumors and tumors generated by the parental cell lines under the different hormonal regimes.
(§2) Female homozygous nude mice (obtained from the Jackson Laboratory) are ovarectomized. […] Ovarectomized mice are also implanted with 1.5 mg 90 day release progesterone hormonal tablets. Only the ovarian cancer based cell lines will be examined in progesterone treated animals. Animals will be subcutaneously injected with […] of the ARKO or parental cells at the time of hormonal implant Hormonal pellets will be replaced as required.

ZR-75-1 tumors = conditions: ovarectomized nude mice, estradiol and DHT pellets; expected result
Method: as §1, §2

p21 (WAF1/CIP1) gene [2] = test: Endogenous p21 (WAF1/CIP1) gene expression in PC-3 (AR2) cells stably transfected with AR; assay type: cell-based
Method: as §3, §4

AR = target: T1, AR (Homo sapiens, UniProt P10275); test: AR transcriptional activity, MMTV-CAT reporter gene in DU145 cells transfected with AR with ARA70 or empty vector; assay type: cell-based; conditions: 10^-10 to 10^-6 M, presence or absence of ARA70
T1 construct: expressed in transfected cells; host or cells: DU145
T1 sequence (P10275 1-920): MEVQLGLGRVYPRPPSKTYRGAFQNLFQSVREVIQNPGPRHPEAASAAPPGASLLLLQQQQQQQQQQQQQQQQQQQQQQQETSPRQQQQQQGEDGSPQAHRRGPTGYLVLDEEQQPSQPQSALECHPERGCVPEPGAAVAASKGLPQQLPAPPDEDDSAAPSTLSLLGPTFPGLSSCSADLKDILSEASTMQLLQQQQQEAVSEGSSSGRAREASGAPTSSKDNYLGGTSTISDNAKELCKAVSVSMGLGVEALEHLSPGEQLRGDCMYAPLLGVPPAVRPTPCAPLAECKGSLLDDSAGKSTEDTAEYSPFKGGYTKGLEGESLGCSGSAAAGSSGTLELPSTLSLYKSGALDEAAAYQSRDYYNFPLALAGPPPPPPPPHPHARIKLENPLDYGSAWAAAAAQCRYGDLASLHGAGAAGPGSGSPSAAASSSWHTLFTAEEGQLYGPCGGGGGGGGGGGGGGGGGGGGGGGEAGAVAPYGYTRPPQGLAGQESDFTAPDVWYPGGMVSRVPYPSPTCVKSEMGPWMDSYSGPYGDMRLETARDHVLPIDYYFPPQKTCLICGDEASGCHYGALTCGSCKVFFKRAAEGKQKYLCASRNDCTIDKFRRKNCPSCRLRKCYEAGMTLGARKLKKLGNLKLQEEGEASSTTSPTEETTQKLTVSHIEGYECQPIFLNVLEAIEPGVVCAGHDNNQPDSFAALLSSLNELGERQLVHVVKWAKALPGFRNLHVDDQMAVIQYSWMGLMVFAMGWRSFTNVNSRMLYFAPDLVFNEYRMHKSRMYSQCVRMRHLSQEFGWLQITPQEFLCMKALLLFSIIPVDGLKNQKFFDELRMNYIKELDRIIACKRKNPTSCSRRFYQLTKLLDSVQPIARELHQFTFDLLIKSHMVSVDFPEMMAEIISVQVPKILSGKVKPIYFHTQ
From the text: The DHT treatments were taken as the positive control. Data represents an average of three independent experiments.
PSA is an androgen target gene that is not transcriptionally activated by the ER (58).

In the case of `C[C@]12CCC(=O)C[C@@H]1CC[C@@H]1[C@@H]2CC[C@]2(C)[C@@H](O)CC[C@@H]12` [DHT, 5α-dihydrotestosterone], the “endogenous p21 (WAF1/CIP1) gene expression” value (p21 (WAF1/CIP1) gene [1]) was “induced endogenous p21 (WAF1/CIP1) gene expression”, the “estradiol induced proliferation of ZR-ARKO derived tumors in the presence of DHT” value (ZR-ARKO derived tumors) was “expected to continue estradiol induced proliferation” and the “estradiol-mediated proliferation of ZR-75-1 tumors” value (ZR-75-1 tumors) was “expected to inhibit”. The “endogenous p21 (WAF1/CIP1) gene expression” value (p21 (WAF1/CIP1) gene [2]; 10 nM DHT, PC-3 (AR2) cells) was “confirmed”.

`C[C@]12CC[C@@H]3c4ccc(O)cc4C[C@@H](CCCCCCCCC[S+]([O-])CCCC(F)(F)C(F)(F)F)[C@H]3[C@@H]1CC[C@@H]2O` (stereo partly drawn) [ICI182, 780] was tested, and the “induction of AR mediated transcription” value (AR) was “unable to induce AR mediated transcription”.

With `CC(C)(O)C(=O)Nc1ccc([N+](=O)[O-])c(C(F)(F)F)c1` [hydroxyflutamide] the “effect on DHT induction of p21 (WAF1/CIP1)” value (p21 (WAF1/CIP1) gene [2]; 1 μM hydroxyflutamide, PC-3 (AR2) cells transfected with BRCA1) was “blocks the DHT induction”.
